# Experimental data published in the supplement of paper PMC10307832.
# Assays:
# Test in all cases: relative viability (nuclei count vs DMSO), 5 days (fraction); higher = more cells survive
# LXF-289 = tested on: LXF-289
# Summary of the method: (§1)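 Dosing by pin tool came one day after lung cancer cell lines were seeded in 1536-well plates, using either one drug or a fixed anchor-drug dose plus five library-drug doses (not always all listed) in √10 steps. After 5 days, nuclei were counted on 4× images. Relative viability is treated-well nuclei count divided by vehicle-well nuclei count, and values are medians of duplicate plates.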
# EMC-BAC-2 = tested on: EMC-BAC-2
# Summary of the method: as §1
# ABC-1 = tested on: ABC-1
# Summary of the method: as §1
# NCI-H1666 = tested on: NCI-H1666
# Summary of the method: as §1
# NCI-H1915 = tested on: NCI-H1915
# Summary of the method: as §1
# HOP-62 = tested on: HOP-62
# Summary of the method: as §1
# HCC-15 = tested on: HCC-15
# Summary of the method: as §1
# NCI-H358 = tested on: NCI-H358
# Summary of the method: as §1
# NCI-H441 = tested on: NCI-H441
# Summary of the method: as §1
# NCI-H1975 = tested on: NCI-H1975
# Summary of the method: as §1
# ChaGo-K-1 = tested on: ChaGo-K-1
# Summary of the method: as §1
# NCI-H3122 = tested on: NCI-H3122
# Summary of the method: as §1
# CAL-12T = tested on: CAL-12T
# Summary of the method: as §1
# NCI-H1993 = tested on: NCI-H1993
# Summary of the method: as §1
# NCI-H522 = tested on: NCI-H522
# Summary of the method: as §1
# NCI-H2085 = tested on: NCI-H2085
# Summary of the method: as §1
# NCI-H1755 = tested on: NCI-H1755
# Summary of the method: as §1
# HCC-78 = tested on: HCC-78
# Summary of the method: as §1
# NCI-H322M = tested on: NCI-H322M
# Summary of the method: as §1
# EPLC-272H = tested on: EPLC-272H
# Summary of the method: as §1
# NCI-H2126 = tested on: NCI-H2126
# Summary of the method: as §1
smiles,measurement,setting,value
COc1cc(N2CCC(C(N)=O)CC2)ccc1Nc1nc(N)c(Cl)c(Nc2ccccc2S(=O)(=O)C(C)C)n1 [HG-5-88-01] + NC(=O)Nc1cc(-c2cccc(F)c2)sc1C(=O)N[C@H]1CCCNC1 [AZD7762] (partner 0.2 µM),relative viability,LXF-289; first compound 0.04 µM,1.11
same,relative viability,LXF-289; first compound 0.1265 µM,1.05
same,relative viability,LXF-289; first compound 0.4 µM,1.06
same,relative viability,LXF-289; first compound 1.265 µM,1.12
same,relative viability,LXF-289; first compound 4 µM,1.11
same,relative viability,EMC-BAC-2; first compound 0.04 µM,1.09
same,relative viability,EMC-BAC-2; first compound 0.1265 µM,1.21
same,relative viability,EMC-BAC-2; first compound 0.4 µM,0.922
same,relative viability,EMC-BAC-2; first compound 1.265 µM,0.975
same,relative viability,EMC-BAC-2; first compound 4 µM,0.65
same,relative viability,ABC-1; first compound 0.04 µM,0.663
same,relative viability,ABC-1; first compound 0.1265 µM,0.63
same,relative viability,ABC-1; first compound 0.4 µM,0.645
same,relative viability,ABC-1; first compound 1.265 µM,0.688
same,relative viability,ABC-1; first compound 4 µM,0.657
same,relative viability,NCI-H1666; first compound 0.04 µM,0.75
same,relative viability,NCI-H1666; first compound 0.1265 µM,0.783
same,relative viability,NCI-H1666; first compound 0.4 µM,0.779
same,relative viability,NCI-H1666; first compound 1.265 µM,0.771
same,relative viability,NCI-H1666; first compound 4 µM,0.53
same,relative viability,NCI-H1915; first compound 0.04 µM,0.69
same,relative viability,NCI-H1915; first compound 0.1265 µM,0.697
same,relative viability,NCI-H1915; first compound 0.4 µM,0.689
same,relative viability,NCI-H1915; first compound 1.265 µM,0.741
same,relative viability,NCI-H1915; first compound 4 µM,0.463
same,relative viability,HOP-62; first compound 0.04 µM,0.463
same,relative viability,HOP-62; first compound 0.1265 µM,0.736
same,relative viability,HOP-62; first compound 0.4 µM,0.654
same,relative viability,HOP-62; first compound 1.265 µM,0.55
same,relative viability,HOP-62; first compound 4 µM,0.584
same,relative viability,HCC-15; first compound 0.04 µM,1.27
same,relative viability,HCC-15; first compound 0.1265 µM,0.595
same,relative viability,HCC-15; first compound 0.4 µM,1.15
same,relative viability,HCC-15; first compound 1.265 µM,1.3
same,relative viability,HCC-15; first compound 4 µM,1.04
same,relative viability,NCI-H358; first compound 0.04 µM,0.498
same,relative viability,NCI-H358; first compound 0.1265 µM,0.503
same,relative viability,NCI-H358; first compound 0.4 µM,0.451
same,relative viability,NCI-H358; first compound 1.265 µM,0.223
same,relative viability,NCI-H358; first compound 4 µM,0.245
same,relative viability,NCI-H441; first compound 0.04 µM,0.964
same,relative viability,NCI-H441; first compound 0.1265 µM,0.931
same,relative viability,NCI-H441; first compound 0.4 µM,1.19
same,relative viability,NCI-H441; first compound 1.265 µM,1.08
same,relative viability,NCI-H441; first compound 4 µM,0.998
same,relative viability,NCI-H1975; first compound 0.04 µM,0.757
same,relative viability,NCI-H1975; first compound 0.1265 µM,0.756
same,relative viability,NCI-H1975; first compound 0.4 µM,0.603
same,relative viability,NCI-H1975; first compound 1.265 µM,0.328
same,relative viability,NCI-H1975; first compound 4 µM,0.348
same,relative viability,ChaGo-K-1; first compound 0.04 µM,0.842
same,relative viability,ChaGo-K-1; first compound 0.1265 µM,0.909
same,relative viability,ChaGo-K-1; first compound 0.4 µM,0.828
same,relative viability,ChaGo-K-1; first compound 1.265 µM,0.852
same,relative viability,ChaGo-K-1; first compound 4 µM,0.727
same,relative viability,NCI-H3122; first compound 0.04 µM,0.744
same,relative viability,NCI-H3122; first compound 0.1265 µM,0.376
same,relative viability,NCI-H3122; first compound 0.4 µM,0.315
same,relative viability,NCI-H3122; first compound 1.265 µM,0.24
same,relative viability,NCI-H3122; first compound 4 µM,0.114
same,relative viability,CAL-12T; first compound 0.04 µM,0.71
same,relative viability,CAL-12T; first compound 0.1265 µM,0.607
same,relative viability,CAL-12T; first compound 0.4 µM,0.501
same,relative viability,CAL-12T; first compound 1.265 µM,0.539
same,relative viability,CAL-12T; first compound 4 µM,0.399
same,relative viability,NCI-H1993; first compound 0.04 µM,0.845
same,relative viability,NCI-H1993; first compound 0.1265 µM,0.875
same,relative viability,NCI-H1993; first compound 0.4 µM,0.77
same,relative viability,NCI-H1993; first compound 4 µM,0.558
same,relative viability,NCI-H522; first compound 0.04 µM,0.795
same,relative viability,NCI-H522; first compound 0.1265 µM,0.842
same,relative viability,NCI-H522; first compound 0.4 µM,0.779
same,relative viability,NCI-H522; first compound 1.265 µM,0.846
same,relative viability,NCI-H522; first compound 4 µM,0.681
same,relative viability,NCI-H2085; first compound 0.04 µM,1.08
same,relative viability,NCI-H2085; first compound 0.1265 µM,0.969
same,relative viability,NCI-H2085; first compound 0.4 µM,0.922
same,relative viability,NCI-H2085; first compound 1.265 µM,0.964
same,relative viability,NCI-H2085; first compound 4 µM,0.667
same,relative viability,NCI-H1755; first compound 0.04 µM,0.465
same,relative viability,NCI-H1755; first compound 0.1265 µM,0.476
same,relative viability,NCI-H1755; first compound 0.4 µM,0.419
same,relative viability,NCI-H1755; first compound 1.265 µM,0.449
same,relative viability,NCI-H1755; first compound 4 µM,0.516
same,relative viability,HCC-78; first compound 0.04 µM,0.576
same,relative viability,HCC-78; first compound 0.1265 µM,0.553
same,relative viability,HCC-78; first compound 0.4 µM,0.472
same,relative viability,HCC-78; first compound 1.265 µM,0.361
same,relative viability,HCC-78; first compound 4 µM,0.364
same,relative viability,NCI-H322M; first compound 0.04 µM,0.665
same,relative viability,NCI-H322M; first compound 0.1265 µM,0.61
same,relative viability,NCI-H322M; first compound 0.4 µM,0.465
same,relative viability,NCI-H322M; first compound 1.265 µM,0.454
same,relative viability,NCI-H322M; first compound 4 µM,0.466
same,relative viability,EPLC-272H; first compound 0.04 µM,0.215
same,relative viability,EPLC-272H; first compound 0.1265 µM,0.222
same,relative viability,EPLC-272H; first compound 0.4 µM,0.203
same,relative viability,EPLC-272H; first compound 1.265 µM,0.234
same,relative viability,EPLC-272H; first compound 4 µM,0.0657
same,relative viability,NCI-H2126; first compound 0.04 µM,0.985
same,relative viability,NCI-H2126; first compound 0.1265 µM,1.05
same,relative viability,NCI-H2126; first compound 0.4 µM,0.961
same,relative viability,NCI-H2126; first compound 1.265 µM,1.05
same,relative viability,NCI-H2126; first compound 4 µM,0.828
